In article PMC10010340, “The Wnt Pathway Inhibitor RXC004 Blocks Tumor Growth and Reverses Immune Evasion in Wnt Ligand–dependent Cancer Models” (Cancer Research Communications, 2022):

Assays:
Lipophilicity (logD7.4) = assay type: physicochemical
Protocol: Lipophilicity (logD7.4): A total of 30 μL of a 20 mmol/L stock solution of RXC004 was added to a vial containing 1.5 mL of pH7.4 phosphate buffer saturated octanol and 1.5 mL of octanol-saturated pH7.4 phosphate buffer, shaken and centrifuged to ensure phase separation. logD7.4 was calculated as the logarithm of the ratio of the concentration of RXC004 (measured by LC-UV in octanol vs. buffer phase).

[1] = test system: cell lines with RNF43 mutations and RSPO3 fusions; experiment: Proliferation, 5 days, ATPLite; assay type: cell-based, human; details: concentration-series
Protocol: (§1) Cells were treated with a concentration-series of RXC004 for 5 days and proliferation measured using ATPLite 1-Step Reagent (Perkin Elmer #6016731). Data were normalized to DMSO-treated controls and IC50 values determined. Colorectal cell lines used were: WiDR (APC-E853*/T1556fs*3), HCT116 (β-cateninΔSer45; RNF43-R117fs*41), JVE-109 (RNF43-V211fs*47/G659fs*41), SNU-1411 (PRPTK-RSPO-3 fusion). Pancreatic cell lines were: CAPAN-2 (RNF43-R330fs*89), AsPC1 (RNF43-S720*), and HPAF-II (RNF43-E174*). Cell lines were from ATCC, except for SNU-1411 (Korean Cell Line Bank) and cultured for no more than 20 passages. Cells were routinely tested for Mycoplasma by the MycoAlert test (Lonza) and authenticated using short tandem repeat fingerprinting.

[2] = test system: cell lines with mutations in downstream Wnt signaling; experiment: Proliferation, 5 days, ATPLite; assay type: cell-based, human; details: concentration-series
Protocol: as §1

HPAF-II cells = experiment: Cell-cycle analysis, phospho-Ser10 histone H3 flow cytometry; assay type: cell-based, human; details: 100 nmol/L, representative plot (DMSO 2.03%)
Protocol: For concentration–response effects on gene expression, Single-Shot Cell Lysis kit (Bio-Rad #172-5080) was used for RNA extraction, data were normalized to DMSO-treated controls, and IC50 values determined. For cell-cycle analysis, the cancer cell line panel was treated with RXC004 (100 nmol/L) or DMSO (0.1%) for 3 days. Cell-cycle profiles were determined by staining with propidium iodide (Thermo Fisher Scientific #P3566) and phospho-Ser10-Histone-H3 (AlexaFluor-647, BioLegend #650806), and quantified using an Agilent Novocyte-3000 flow cytometer. For in vitro growth curve analysis, HPAF-II and SNU-1411 cells were seeded in 96-well plates at 2,000 cells/well and imaged on the IncuCyte (Sartorius) at 10× magnification with 4 fields of view per well. Total cell object count over time was calculated using the Adherent Cell-by-Cell analysis module.

SNU-1411 xenograft = experiment: Xenograft pilot study; assay type: in vivo, mouse (NOD-SCID); details: SNU-1411, 1.5 mg/kg twice daily oral
Protocol: (§2) The in vivo pilot studies were performed at Axis Bioservices. HPAF-II (5 × 10^6 cells; athymic nude mice), AsPC1 (3 × 10^6 cells; athymic nude mice), and SNU-1411 (1 × 10^7 cells; NOD-SCID mice) were implanted bilaterally, subcutaneously, whereas HCT116 (3 × 10^6 cells; athymic nude mice) were implanted in a single flank. Animals were randomized into the indicated groups and treatment initiated once tumor volumes reached approximately 100–150 mm^3. Dosing was either 1.5 mg/kg twice daily RXC004 for 7–13 days then once daily for the remainder of study (up to 29 days), or 28 days 1.5 mg/kg twice daily RXC004 for HCT116. In these and all other animal studies, unless otherwise specified, RXC004 was dosed orally in 0.5% carboxymethylcellulose + 0.1% Tween-80. For AsPC1, an ascites model, end of study tumor weight (mg) was measured. A total of 12 hours after the final dose, RNA was extracted [GenElute RNA isolation kit (#RTN70, Sigma)] from snap frozen tumor for qRT-PCR expression analysis of Axin2, c-Myc, RNF43, MUC4, and MUC5AC relative to appropriate housekeepers.

AsPC1 xenograft = experiment: Xenograft pilot study; assay type: in vivo, mouse (athymic nude); details: AsPC1, 1.5 mg/kg twice daily oral
Protocol: as §2

HCT116 xenograft = experiment: Xenograft pilot study; assay type: in vivo, mouse (athymic nude); details: HCT116, 1.5 mg/kg twice daily oral, 28 days
Protocol: as §2

HPAF-II xenograft = experiment: Xenograft pilot study; assay type: in vivo, mouse (athymic nude); details: 1.5 mg/kg twice daily oral
Protocol: as §2

B16F10 tumors = experiment: B16F10/C57BL/6 syngeneic model; assay type: in vivo, mouse (C57BL/6)
Protocol: B16F10/C57BL/6 syngeneic model was performed at Axis Bioservices. Mouse B16F10 cells (2 × 10^5) were subcutaneously implanted in flanks of the immunocompetent male C57BL/6 mice. Treatment was initiated at day 3, once tumors were palpable with RXC004 being dosed orally as indicated. Anti-programmed cell death protein-1 (PD-1; RMP1-14, BioXcell) or isotype control was dosed at 100 μg per dose intraperitoneal, twice weekly. Anti-CTLA-4 antibody (BioXCell BP0131) or isotype control was dosed intraperitoneally every 3 days at 100 μg per dose. Separate experiments were performed for tumor volume and flow cytometry analysis. Tumor volume was assessed in each animal and/or group until prespecified termination conditions and/or study endpoint were reached. For flow cytometry, tumors were resected at day 19, 2 hours after final dose, weighed and digested into a single-cell suspension using collagenase (Liberase, Roche) and DNAase and passed through a strainer prior to flow cytometry analysis on FACS Canto II apparatus using Flow JO software. Single and fluorescence minus one stains were used for compensation setup and gating controls respectively. A myeloid analysis panel included Zombie viability dye (BioLegend #423106), CD11b (BioLegend #101228), CD45, Ly6C, and Ly6G (BD Biosciences #563891, #562727, #551460). Myeloid myeloid-derived suppressor cells (MDSC) were gated as CD45^+CD11b^+ Ly6G-Ly6C^high and polymorphonuclear MDSCs were gated as CD45^+CD11b^+ Ly6G^+Ly6C^med ([21]). For gene expression analysis, tumors were snap frozen, total RNA was extracted and mRNA expression levels for various genes analyzed using the Nanostring nCounter Mouse PanCancer IO360 Codeset.

## Cc1c(-c2ccnc(C(F)(F)F)c2)ncn1CC(=O)Nc1ccc(-c2cnccn2)cn1 [RXC004, 2-[5-methyl-4-[2-(trifluoromethyl)-4-pyridyl]imidazol-1-yl]-N-(5-pyrazin-2-yl-2-pyridyl)acetamide]
Lipophilicity (logD7.4); octanol/phosphate buffer, pH 7.4, pH 7.4, octanol/phosphate buffer, read-out: Measured log D7.4
  logD: 2.4
Lipophilicity (logD7.4); pH 7.4, octanol/phosphate buffer
  Measured log D7.4: 2.44
[1]
  proliferation: inhibited proliferation
[2]
  proliferation: had no effect
HPAF-II cells
  pH3+ (percentage phospho-Ser10 histone H3 positive cells): 0.28%
SNU-1411 xenograft
  Wnt-responsive gene expression in tumor including c-Myc: inhibition of Wnt-responsive gene expression
  tumor growth: reduction in tumor growth
AsPC1 xenograft
  Wnt-responsive gene expression in tumor including c-Myc: inhibition of Wnt-responsive gene expression
  tumor growth (tumor weight): reduction in tumor growth
HCT116 xenograft
  tumor growth: No effect
HPAF-II xenograft
  Wnt-responsive gene expression in tumor including c-Myc: inhibition of Wnt-responsive gene expression
  tumor growth: reduction in tumor growth
B16F10 tumors; 5 mg/kg QD versus vehicle, P <0.0001, Log-rank test
  survival hazard ratio: 0.27
B16F10 tumors; 5 mg/kg once daily
  survival: significantly increased survival
  tumor expression of CXCL9: increased tumor expression of the chemokine CXCL9
  tumor-associated CD45+ immune cells (Nanostring): significantly increased the overall tumor-associated CD45^+ immune cells
B16F10 tumors; 5 mg/kg once daily, day 19
  circulating MDSC: concomitant increase in circulating MDSC
  tumor-associated MDSCs: significantly reduced tumor-associated MDSCs
B16F10 tumors; RXC004 5 mg/kg once daily, anti-PD-1 100 μg per dose twice a week
  tumor volume / tumor growth: significant tumor growth inhibition
